This passage reports Ki results from patent US10208021B2, “Substituted tetrahydroisoquinoline compounds as factor XIa inhibitors” (BRISTOL-MYERS SQUIBB COMPANY, priority 2011, dated 2019).

SMILES strings stand for the structures. Where a name gives a salt, the structure may show the parent alone. Bounds are passed on as bounds.

The test addresses purified human Factor XIa (Homo sapiens (Human), UniProt P03951). Briefly: Factor XIa chromogenic substrate (S-2366) inhibition assay. It counts as biochemical. In a few lines:
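Ki derived from reaction velocities measured in the presence of inhibitor. Purified protease hydrolysed the chromogenic substrate; rate of absorbance change was followed over 20-180 minutes, depending on the protease.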

Setting [1] is: substrate S-2366, activity ranges, Table A.

Sequence of purified human Factor XIa (P03951 388-625): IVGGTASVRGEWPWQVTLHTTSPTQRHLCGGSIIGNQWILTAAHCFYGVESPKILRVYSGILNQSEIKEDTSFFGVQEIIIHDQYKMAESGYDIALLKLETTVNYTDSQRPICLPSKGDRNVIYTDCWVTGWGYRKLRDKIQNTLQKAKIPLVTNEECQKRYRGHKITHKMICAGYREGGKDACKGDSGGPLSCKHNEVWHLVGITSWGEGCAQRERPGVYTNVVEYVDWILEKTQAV
Sequence of purified human Factor XIa (P03951 19-387 partner): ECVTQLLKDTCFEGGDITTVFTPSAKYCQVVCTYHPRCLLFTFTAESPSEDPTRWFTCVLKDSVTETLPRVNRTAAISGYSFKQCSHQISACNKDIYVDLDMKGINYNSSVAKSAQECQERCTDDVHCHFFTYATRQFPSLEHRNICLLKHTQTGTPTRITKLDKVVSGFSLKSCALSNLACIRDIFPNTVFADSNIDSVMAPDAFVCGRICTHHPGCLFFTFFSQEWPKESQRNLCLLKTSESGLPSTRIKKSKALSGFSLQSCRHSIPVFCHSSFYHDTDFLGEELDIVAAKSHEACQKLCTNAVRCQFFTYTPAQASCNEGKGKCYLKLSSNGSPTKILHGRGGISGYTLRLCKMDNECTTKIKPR

One may read the Ki as a measure of affinity in units of concentration, obtained from inhibition or displacement. High values mean lower affinity, low ones higher affinity. The compound `CN1CCN(c2cccc3c2CC(C)(C)N(C(=O)/C=C/c2c(-n4cnnn4)ccc(Cl)c2F)[C@@H]3C(=O)Nc2ccc(C(=O)O)cc2)CC1` [Example 201] registered a Ki under setting [1] of under 5 nM. Same read-out and setting: then `Cn1ncc2ccc(NC(=O)C3c4cccc(N5CCC(N6CCCC6)CC5)c4CCN3C(=O)/C=C/c3c(-n4cnnn4)ccc(Cl)c3F)cc21` (racemic) [Example 120], with under 5 nM; and `CCOC(=O)c1ccc(NC(=O)C2c3cccc(N4CCOCC4=O)c3CCN2C(=O)/C=C/c2c(-n3cnnn3)ccc(Cl)c2F)cc1` (racemic) [Example 51], with 5 to 10 nM. On the same count and under the same terms, then `CC(=O)c1ccc(Cl)c(F)c1/C=C/C(=O)N1CCc2c(cccc2N2CCCCC2=O)[C@H]1C(=O)Nc1ccc(C(=O)O)cc1` [compound 40], with under 5 nM. On to `N#Cc1ccc(Cl)c(F)c1/C=C/C(=O)N1CCc2c(cccc2N2CCC(N3CCCC3)CC2)C1C(=O)Nc1ccc(C(=O)O)cc1` (racemic) [Example 155], for which the Ki (substrate S-2366, Table 1) is under 5 nM.

For `O=C(O)c1ccc(NC(=O)C2c3cccc(N4CCC(c5ccccc5)CC4)c3CCN2C(=O)/C=C/c2c(-n3cnnn3)ccc(Cl)c2F)cc1` (racemic) [Example 95], the Ki under setting [1] was under 5 nM. Still for that read-out and setting: then `N#Cc1ccc(Cl)c(F)c1C=CC(=O)N1CCc2c(cccc2N2CCC(N3CCCC3)CC2)C1C(=O)Nc1ccc(C(=O)O)cc1` (stereo not drawn) [Example 163], with 5 to 10 nM; and `Cn1ncc2cc(NC(=O)C3c4cccc(N5CCC(N6CCCC6)CC5)c4CCN3C(=O)/C=C/c3c(-n4cnnn4)ccc(Cl)c3F)ccc21` (racemic) [Example 127], with under 5 nM. On to `CCNC(=O)c1ccc(NC(=O)C2c3cccc(N4CCNCC4)c3CCN2C(=O)/C=C/c2cc(Cl)c(F)cc2-n2cnnn2)cc1` (racemic) [Example 71], for which the Ki (substrate S-2366, Table 1) stood at 492 nM.

`CN(C)CCN1CCN(c2cccc3c2CCN(C(=O)C=Cc2c(-n4cnnn4)ccc(Cl)c2F)C3C(=O)Nc2ccc(C(=O)O)cc2)CCC1=O` (stereo not drawn) [Example 266]: the Ki (substrate S-2366, Table 1) was under 5 nM.

As for `NC(=O)c1ccc(NC(=O)C2c3cccc(N4CCNCC4)c3CCN2C(=O)/C=C/c2cc(Cl)c(F)cc2-n2cnnn2)cc1` (stereo not drawn) [Example 66, (E)-N-(4-carbamoylphenyl)-2-(3-(5-chloro-4-fluoro-2-(1H-tetrazol-1-yl)phenyl)acryloyl)-5-(piperazin-1-yl)-1,2,3,4-tetrahydroisoquinoline-1-carboxamide, bis-TFA Salt], under setting [1], the Ki is 5 to 10 nM.

`CN(C)C1CCN(c2cccc3c2CCN(C(=O)/C=C/c2c(-n4cnnn4)ccc(Cl)c2F)C3C(=O)Nc2ccc(C(=O)OC(C)(C)C)cc2)CC1` (racemic) [Example 91] came in with a Ki under setting [1] of 5 to 10 nM.

Regarding `CC1(C)Cc2c(cccc2N2CCCCC2)[C@H](C(=O)Nc2ccc(C(=O)O)cc2)N1C(=O)/C=C/c1c(-n2cnnn2)ccc(Cl)c1F` [Example 196], the Ki (substrate S-2366, Table 1) worked out at 844 nM. Under setting [1], `COC(=O)Nc1ccc(NC(=O)C2c3cccc(N4CCC(N5CCCC5)CC4)c3CCN2C(=O)/C=C/c2c(-n3cnnn3)ccc(Cl)c2F)cc1` (racemic) [Example 89] yielded a Ki of under 5 nM.

For `COC(=O)Nc1ccc(NC(=O)C2c3cccc(N4CCNCC4)c3CCN2C(=O)/C=C/c2c(-n3cnnn3)ccc(Cl)c2F)cc1` (stereo not drawn) [Example 4], the affinity (substrate S-2366, Table 1) corresponds to a Ki of 10.3 nM. `CC(=O)c1ccc(Cl)c(F)c1/C=C/C(=O)N1CCc2c(cccc2N2CCCCC2=O)C1C(=O)Nc1ccc(C(=O)O)cc1` (racemic) [compound 38] showed a Ki under setting [1] of 5 to 10 nM. Under “substrate S-2366, Table 1”, `CC(=O)c1ccc(Cl)c(F)c1/C=C/C(=O)N1CCc2c(cccc2N2CCS(=O)(=O)CC2)[C@@H]1C(=O)Nc1ccc(C(=O)O)cc1` [Example 216] came in with a Ki of 955 nM.

On to `CC(=O)c1ccc(Cl)c(F)c1C=CC(=O)N1CCc2c(cccc2N2CCC(OCCN(C)C)CC2)C1C(=O)Nc1ccc(C(=O)O)cc1` (stereo not drawn) [Example 267], for which the Ki under setting [1] is under 5 nM. Still for that read-out and setting: in the case of `CC(C)COC(=O)c1ccc(NC(=O)C2c3cccc(N4CCC(N5CCCC5)CC4)c3CCN2C(=O)/C=C/c2c(-n3cnnn3)ccc(Cl)c2F)cc1` (racemic) [Example 123] it was under 5 nM. `CCOC(=O)c1ccc(NC(=O)C2c3cccc(N4CCC(N5CCCC5)CC4)c3CCN2C(=O)C=Cc2c(C(C)=O)ccc(Cl)c2F)cc1` (stereo not drawn) [Example 170]: the Ki under setting [1] is under 5 nM. Same read-out and setting: in the case of `CN1CCN(c2cccc3c2CCN(C(=O)/C=C/c2c(-n4cnnn4)ccc(Cl)c2F)C3C(=O)Nc2ccc(C#N)cc2)CC1` (stereo not drawn) [Example 20] it was 5 to 10 nM. Regarding `CCOC(=O)c1ccc(NC(=O)C2c3cccc(N4CCC(N5CCCC5=O)CC4)c3CCN2C(=O)C=Cc2c(-n3cnnn3)ccc(Cl)c2F)cc1` (stereo not drawn) [Example 125], the affinity (substrate S-2366, Table 1), expressed as Ki, was 1010 nM. For `CCOC(=O)c1ccc(NC(=O)C2c3cccc(N4CCC(N5CCCC5)CC4)c3CCN2C(=O)C=Cc2c(-n3cnnn3)ccc(Cl)c2F)cc1` (stereo not drawn) [Example 93], the Ki under setting [1] was 5 to 10 nM. Same read-out and setting: in the case of `O=C(O)c1ccc(NC(=O)[C@@H]2c3cccc(N4CCC(C(=O)N5CCOCC5)CC4)c3CCN2C(=O)/C=C/c2c(-n3cnnn3)ccc(Cl)c2F)cc1` [Example 141] it was under 5 nM.

Take `N#Cc1ccc(NC(=O)C2c3cccc(N4CCC(N5CCCC5)CC4)c3CCN2C(=O)/C=C/c2c(-n3cnnn3)ccc(Cl)c2F)cc1` (racemic) [Example 85]: the Ki under setting [1] is under 5 nM. `COC(=O)[C@H]1CC[C@H](NC(=O)C2c3cccc(N4CCC(N5CCCC5)CC4)c3CCN2C(=O)/C=C/c2c(-n3cnnn3)ccc(Cl)c2F)CC1` (mixture of isomers) [Example 232] registered a Ki under setting [1] of 5 to 10 nM. Still for that read-out and setting: in the case of `O=C(O)c1ccc(NC(=O)C2c3cccc(N4CCC(N5CCCC5)CC4)c3CCN2C(=O)/C=C/c2cccc(Cl)c2Cl)cc1` (racemic) [Example 157] it was 5 to 10 nM. On the same count and under the same terms, in the case of `CC(=O)NCCNC(=O)c1ccc(NC(=O)C2c3cccc(N4CCNCC4)c3CCN2C(=O)/C=C/c2cc(Cl)c(F)cc2-n2cnnn2)cc1` (racemic) [Example 72] it was 500 to 5000 nM; in that of `CCCCOC(=O)c1ccc(NC(=O)C2c3cccc(N4CCC(N5CCCC5)CC4)c3CCN2C(=O)C=Cc2c(-n3cnnn3)ccc(Cl)c2F)cc1` (stereo not drawn) [Example 114], under 5 nM. The same measure, in the same setting: in the case of `CC(=O)c1ccc(Cl)c(F)c1/C=C/C(=O)N1CCc2c(cccc2N2CCC(N3CCCC3)CC2)C1C(=O)Nc1ccc(C(=O)O)cc1` (racemic) [Example 154] it was under 5 nM. For `O=C(Nc1ccc(Cl)cc1)C1c2cccc(N3CCC(N4CCCC4)CC3)c2CCN1C(=O)C=Cc1c(-n2cnnn2)ccc(Cl)c1F` (stereo not drawn) [Example 111], under setting [1], the Ki fell in the range of 500 to 5000 nM. `CN(C)C(=O)c1ccc(NC(=O)C2c3cccc(N4CCNCC4)c3CCN2C(=O)/C=C/c2cc(Cl)c(F)cc2-n2cnnn2)cc1` (racemic) [Example 76]: under setting [1], the Ki was 500 to 5000 nM. Under setting [1], `CC(=O)c1ccc(Cl)c(F)c1/C=C/C(=O)N1CCc2c(cccc2N2CCC(C(=O)N(C)C)CC2)C1C(=O)Nc1ccc(C(=O)O)cc1` (racemic) [Example 218] registered a Ki of under 5 nM. `CC(=O)c1ccc(Cl)c(F)c1C=CC(=O)N1CCc2c(cccc2N2CCC(N3CCCC3)CC2)C1C(=O)Nc1ccc(C(=O)O)cc1` (stereo not drawn) [Example 168]: the Ki under setting [1] is under 5 nM. On the same count and under the same terms, in the case of `CCOC(=O)c1ccc(NC(=O)[C@@H]2c3cccc(N4CCC(C(=O)N5CCCC5)CC4)c3CCN2C(=O)/C=C/c2c(-n3cnnn3)ccc(Cl)c2F)cc1` [Example 135] it was under 5 nM; in that of `CC(=O)OC1CCN(c2cccc3c2CCN(C(=O)/C=C/c2c(-n4cnnn4)ccc(Cl)c2F)C3C(=O)Nc2ccc(C(=O)O)cc2)CC1` (racemic) [Example 137], under 5 nM; in that of `CCOC(=O)c1ccc(NC(=O)C2c3cccc(N4CCC(C(=O)N5CCCC5)CC4)c3CCN2C(=O)/C=C/c2c(-n3cnnn3)ccc(Cl)c2F)cc1` (racemic) [Example 134], under 5 nM. The same measure, in the same setting: then `CCOC(=O)c1ccc(NC(=O)C2c3cccc(N4CCOCC4)c3CCN2C(=O)C=Cc2c(-n3cnnn3)ccc(Cl)c2F)cc1` (stereo not drawn) [Example 185], with 5 to 10 nM. For the compound `N[C@H]1CC[C@H](NC(=O)C2c3cccc(N4CCC(N5CCCC5)CC4)c3CCN2C(=O)/C=C/c2c(-n3cnnn3)ccc(Cl)c2F)CC1` (mixture of isomers) [Example 235], the Ki (substrate S-2366, Table 1) is 74.5 nM. `COc1cccc(NC(=O)c2ccc(NC(=O)C3c4cccc(N5CCNCC5)c4CCN3C(=O)/C=C/c3cc(Cl)c(F)cc3-n3cnnn3)cc2)c1` (racemic) [Example 75]: the Ki under setting [1] was in the range of 100 to 500 nM. Turning to `O=C(O)c1ccc(NC(=O)C2c3cccc(N4CCC(N5CCCC5)CC4)c3CCN2C(=O)/C=C/c2cccc(Cl)c2)cc1` (racemic) [Example 156], the Ki under setting [1] lay in the range of 5 to 10 nM. Same read-out and setting: in the case of `CCOC(=O)c1cc(C)n(-c2cccc3c2CCN(C(=O)/C=C/c2c(-n4cnnn4)ccc(Cl)c2F)C3C(=O)Nc2ccc(C(=O)O)cc2)n1` (stereo not drawn) [Example 241, (E)-4-(2-(3-(3-Chloro-2-fluoro-6-(1H-tetrazol-1-yl)phenyl)acryloyl)-5-(3-(ethoxycarbonyl)-5-methyl-1H-pyrazol-1-yl)-1,2,3,4-tetrahydroisoquinoline-1-carboxamido)benzoic acid] it was under 5 nM. `CCOC(=O)c1ccc(NC(=O)[C@H]2c3cccc(N4CCNCC4=O)c3CCN2C(=O)/C=C/c2c(-n3cnnn3)ccc(Cl)c2F)cc1` [Example 189] showed a Ki (substrate S-2366, Table 1) of 1690 nM. The compound `O=C(O)c1ccc(NC(=O)C2c3cccc(N4CCC(N5CCCC5)CC4)c3CCN2C(=O)/C=C/c2c(F)ccc(Cl)c2F)cc1` (racemic) [Example 180] gave a Ki under setting [1] of under 5 nM.

Under setting [1], `O=C(O)c1ccc(NC(=O)C2c3cccc(N4CCC(N5CCCC5)CC4)c3CCN2C(=O)C=Cc2c(C(F)(F)F)ccc(Cl)c2F)cc1` (stereo not drawn) [Example 179] registered a Ki of 100 to 500 nM. Same read-out and setting: in the case of `COC(=O)N1CCN(c2cccc3c2CCN(C(=O)/C=C/c2c(-n4cnnn4)ccc(Cl)c2F)C3C(=O)Nc2ccc(F)cc2)CC1` (stereo not drawn) [Example 25] it was 5 to 10 nM. As to `CC1(C)CCN(c2cccc3c2CCN(C(=O)/C=C/c2c(-n4cnnn4)ccc(Cl)c2F)C3C(=O)Nc2ccc(C(=O)O)cc2)CC1` (racemic) [Example 117], under setting [1], the Ki is under 5 nM. On the same count and under the same terms, in the case of `CN(C)CCNC(=O)N1CCCN(c2cccc3c2CCN(C(=O)/C=C/c2c(-n4cnnn4)ccc(Cl)c2F)C3C(=O)Nc2ccc(C(=O)O)cc2)CC1` (racemic) [Example 261] it was under 5 nM.
